Data taken from patent US10823738B2, “Methods for breast cancer treatment” (George Mason University, priority 2015, dated 2020).

How the values were obtained:
[1] = test system: HER2− breast cancer; experiment: I-SPY 2 TRIAL: pCR response of breast cancer patients treated with veliparib; format: in vivo, human
Description: Currently, treatment of Stage II/III breast cancer involves neoadjuvant treatment (pre-surgical) with drug regimens that may include therapies targeting specific molecular defects. Disclosed herein are novel methods for treatment of breast cancer comprising identifying biomarkers that predict response to therapeutic agents used in the pre-surgical stage of treatment of cancer. Subjects providing samples (pre-treatment biopsies) for studies described herein were characterized based on measurement of estrogen/hormone receptor (HR) and HER2 (c-erbB2), and were described by HER2−/HR−. HER2+/HR+. HER2+/HR−, HER2−/HR+ phenotypes. Response to treatment was determined by the amount of tumor shrinkage and a lack of appreciable tumor evident at surgery. […] This microarray allows for quantitative measurement of the amount of proteins and/or phosphorylated proteins in the tumor or cancerous cells from pretreatment sample, for example from biopsy specimens of women with Stage II/III breast cancer. […]
This example tested the hypothesis that the response to the PARP inhibitor, veliparib, was predicted by specific biomarkers. […] Various proteins were evaluated as biomarkers of veliparib response using reverse phase protein microarray (RPMA) data from pre-treatment laser capture microdissection (LCM) purified tumor epithelium. […]

[2] = test system: breast cancer; experiment: Bayesian analysis (MCMC simulation on I-SPY 2 data) of the predicted probability of Phase III success; format: in vivo, human
Description: Adaptive design trials are constructed on the basis of assigning patients to certain signature groups such as signature biomarker groups, the goal being to determine predictive probabilities of success in Phase III trials for various targeted therapeutics. In essence, the design trials provide data that facilitates the determination of which patient biomarker signatures respond to various regimens. A regimen would “graduate” from trial if probability of statistical significance in Phase III reaches 85% for any signature, provided that a minimum of 60 patients have been assigned to the regimen. Neratinib was one of 7 agents tested in the experimental arms of the ISPY-2 TRIAL to date.
Bayesian analysis was completed using the MCMC simulation based on I-SPY 2 data with the following model: pCR˜HR+HER2+biomarker+treatment+treatment*HR+treatment*HER2+treatment*biomarker. No multiple comparison adjustments were applied. The Bayesian analytical engine developed by Don Berry (Yee et al J Clin Oncol. 2012 Dec. 20; 30(36):4584-6), is a mathematical approach that evaluates the clinical performance of a drug (in this case, neratinib) in both the treatment arm (in this case tumor shrinkage estimates by size changes observed by MRI), coupled with complete pathological response (pCR) as measured as the final response determinant, and the response of the predicate therapy in the control arm. This evaluation determined success of a given therapy for a Phase III trial, and in this case, it was determined that phosphorylation of EGFR at Y1173 was not only statistically significant at predicting or assessing response to neratinib in all patients regardless of hormone receptor levels and HER2 levels (HER2+, HER2− and HR+ and HR−), but when patients with high levels of phosphorylated EGFR (Y1173) were added to the HR−/HER2+ subgroup, the prevalence of ‘biomarker-positive’ patients increased by 50%, while increasing the predicted probability of Phase III success to 90%. […]

SMILES | clinical response ([1]; HER2−/HR− subtype) | complete pathological response (pCR) ([1]; women with both HR+ and HR− tumors) | Phase III success (predicted probability) ([2]; EGFR Y1173 used as a single marker, all patients) [%] | Phase III success (predicted probability) ([2]; HER2+/HR− status as measured by immunohistochemical methods) [%] | predicted probability of Phase III success ([2]; patients with high levels of phosphorylated EGFR (Y1173) added to the HR−/HER2+ subgroup) [%]
C[C@]1(c2nc3c(C(N)=O)cccc3[nH]2)CCCN1 [veliparib] | statistically significant clinical response | pCR was observed | – | – | –
CCOc1cc2ncc(C#N)c(Nc3ccc(OCc4ccccn4)c(Cl)c3)c2cc1NC(=O)/C=C/CN(C)C [neratinib] | – | – | 93 | 87 | 90
